In ChEMBL document CHEMBL1201862, “PubChem BioAssay data set” (2004):
Values joined by “and” are separate entries in the source; they are usually repeats but may differ in a detail not shown here. Equal entries are not always repeated.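 Assay format: 96-well plates, 48-hour exposure. The concentration for 50% growth inhibition is given as GI50.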 Active and inactive are the calls of the source. No stated cut-off is given here; in the data, active = GI50 up to about 1.1 µM and inactive = higher. Non-standard residues stand in square brackets, D forms with d. Residues, ends and D or L forms follow the SMILES beside them. *: point of attachment. Benzoyl(4-OMe) = COc1ccc(C(=O)*)cc1; 2Thi = N[CH](Cc1cccs1)C(=O)O

Columns and labels:
Test in all cases: inhibition of tumour cell growth, NCI panel, 48 h
[1] = system: M14
[2] = system: NCI-H522
[3] = system: SK-MEL-28
[4] = system: ACHN
[5] = system: T47D
[6] = system: RPMI-8226
[7] = system: NCI-H460
[8] = system: KM12
[9] = system: NCI/ADR-RES
[10] = system: MOLT-4
[11] = system: OVCAR-3
[12] = system: Malme-3M
[13] = system: COLO 205
[14] = system: OVCAR-8
[15] = system: SF-539
[16] = system: DU-145
[17] = system: SNB-19
[18] = system: NCI-H23
[19] = system: HOP-92
[20] = system: IGROV-1

SMILES | GI50 [1] | GI50 [2] | GI50 [3] | GI50 [4] | GI50 [5] | GI50 [6] | GI50 [7] | GI50 [8] | GI50 [9] | GI50 [10] | GI50 [11] | GI50 [12] | GI50 [13] | GI50 [14] | GI50 [15] | GI50 [16] | GI50 [17] | GI50 [18] | GI50 [19] | GI50 [20]
CCC(C)C(NC(=O)C(Cc1cccs1)NC(=O)C(CC(C)C)NC(=O)C(CC(C)C)NC(=O)C(CCCCN)NC(=O)C(CCCNC(=N)N)NC(=O)c1ccc(OC)cc1)C(=O)NC(CC(C)C)C(N)=O (stereo unspecified) ({Benzoyl(4-OMe)}-RKLL[2Thi]IL-NH2; configuration not given here) | > 100 µM (inactive) | > 100 µM (inactive) | > 100 µM (inactive) | > 100 µM (inactive) | > 100 µM (inactive) | > 100 µM (inactive) | > 100 µM (inactive) | > 100 µM (inactive) | > 100 µM (inactive) | > 100 µM (inactive) | > 100 µM (inactive) | > 100 µM (inactive) | > 100 µM (inactive) | > 100 µM (inactive) | > 100 µM (inactive) | > 100 µM (inactive) | > 100 µM (inactive) | > 100 µM (inactive) |  | 
C[C@@H]1OC(=O)C[C@H]2CC(=O)N(CCC3CN(S(=O)(=O)C(F)(F)F)c4ccc(Cc5ccc6c(c5)C(CCN5C[C@H]7[C@@H](CC(=O)O[C@H]7C)CC5=O)CN6S(=O)(=O)C(F)(F)F)cc43)C[C@@H]21 (stereo partly specified) | > 100 µM (inactive) |  | > 100 µM (inactive) | > 100 µM (inactive) | > 100 µM (inactive) | > 100 µM (inactive) | > 100 µM (inactive) | > 100 µM (inactive) | > 100 µM (inactive) | > 100 µM (inactive) | > 100 µM (inactive) | > 100 µM (inactive) | > 100 µM (inactive) | > 100 µM (inactive) | < 0.01 µM (active) | > 100 µM (inactive) | > 100 µM (inactive) | > 100 µM (inactive) | > 100 µM (inactive) | 
CCCCCCCCCCCC(=O)c1c(O)cc(C)oc1=O | 79.1 µM (inactive) | 42.4 µM (inactive) | 75 µM (inactive) | 31.5 µM (inactive) | 34.8 µM (inactive) | > 100 µM (inactive) | 57.4 µM (inactive) | 44.9 µM (inactive) | 33.4 µM (inactive) | 23.1 µM (inactive) | 55.5 µM (inactive) | 45 µM (inactive) | 26.5 µM (inactive) | 33.5 µM (inactive) | 23.8 µM (inactive) | 48.3 µM (inactive) | 62.7 µM (inactive) | 34.8 µM (inactive) |  | 55.5 µM (inactive)
COC(=O)/C=C(\C)C(=O)N(C)c1ccccc1I | > 100 µM (inactive) |  | > 100 µM (inactive) | > 100 µM (inactive) | > 100 µM (inactive) | > 100 µM (inactive) | > 100 µM (inactive) | > 100 µM (inactive) | > 100 µM (inactive) | > 100 µM (inactive) | > 100 µM (inactive) | > 100 µM (inactive) | > 100 µM (inactive) | > 100 µM (inactive) |  | > 100 µM (inactive) | > 100 µM (inactive) | > 100 µM (inactive) | > 100 µM (inactive) | 
O=c1ccn(C2OC(CO)C(O)C2F)c(=O)n1Cc1ccccc1 (stereo unspecified) |  | > 100 µM (inactive) | > 100 µM (inactive) | > 100 µM (inactive) | > 100 µM (inactive) | > 100 µM (inactive) | > 10 µM (inactive) | > 100 µM (inactive) | > 100 µM (inactive) | > 100 µM (inactive) | > 100 µM (inactive) | > 100 µM (inactive) | > 100 µM (inactive) | > 100 µM (inactive) | > 100 µM (inactive) | > 100 µM (inactive) | > 100 µM (inactive) | > 100 µM (inactive) |  | > 100 µM (inactive)
O=c1c2ccccc2[nH]c2c(Cl)cc(Cl)c(N3CCCCC3)c12 | 27.3 µM (inactive) | 22.1 µM (inactive) | 58.5 µM (inactive) | 23 µM (inactive) | 50.6 µM (inactive) | 29.9 µM (inactive) |  | 19.1 µM (inactive) | 25.6 µM (inactive) | 26.4 µM (inactive) | 31.1 µM (inactive) |  | 37.8 µM (inactive) | 40 µM (inactive) | 21.9 µM (inactive) |  | 34.6 µM (inactive) | 24.1 µM (inactive) |  | 18.6 µM (inactive)
Cc1cc(NC(=O)NC(=O)c2ccccc2[N+](=O)[O-])ccc1Oc1ncc(Cl)cn1 | 0.0782 µM (active) | 0.0402 µM (active) | 2.37 µM (inactive) | 1.88 µM (inactive) | 34.1 µM (inactive) | 0.223 µM (active) | 0.0548 µM (active) | 0.0519 µM (active) |  | 0.0702 µM (active) | 0.0361 µM (active) | 0.0231 µM (active) | 0.107 µM (active) | 0.303 µM (active) | 0.0883 µM (active) | 1.81 µM (inactive) | 0.212 µM (active) | 0.222 µM (active) |  | 0.51 µM (active)
N#Cc1c(-c2ccccc2)c(C#N)c(=S)n(C2OCC(O)C(O)C2O)c1N (stereo unspecified) | > 100 µM (inactive) | > 100 µM (inactive) | > 100 µM (inactive) | > 100 µM (inactive) | 75.9 µM (inactive) and 77.4 µM (inactive) | > 100 µM (inactive) | > 100 µM (inactive) | > 100 µM (inactive) | > 100 µM (inactive) | > 100 µM (inactive) | > 100 µM (inactive) | > 100 µM (inactive) |  | > 100 µM (inactive) | > 100 µM (inactive) | > 100 µM (inactive) | > 100 µM (inactive) | > 100 µM (inactive) |  | > 100 µM (inactive)
N#CC(=S)Nc1ccc(Cl)c(Cl)c1 | 24.6 µM (inactive) |  | 30.3 µM (inactive) | 33.3 µM (inactive) | 27.1 µM (inactive) | 3.2 µM (inactive) |  | 26.9 µM (inactive) | 26.3 µM (inactive) | 17.3 µM (inactive) | 20.5 µM (inactive) | 28.1 µM (inactive) | 20.6 µM (inactive) | 25.4 µM (inactive) | 20.7 µM (inactive) | 45.6 µM (inactive) | 43.8 µM (inactive) | 31.9 µM (inactive) | 3.1 µM (inactive) | 13.1 µM (inactive)
NC(=O)c1ccc(NS(=O)(=O)c2ccc(N)cc2)nc1 | > 100 µM (inactive) |  | > 100 µM (inactive) | > 100 µM (inactive) | > 100 µM (inactive) | > 100 µM (inactive) | > 100 µM (inactive) | > 100 µM (inactive) | > 100 µM (inactive) | > 100 µM (inactive) | > 100 µM (inactive) | > 100 µM (inactive) | > 100 µM (inactive) | > 100 µM (inactive) |  | > 100 µM (inactive) | > 100 µM (inactive) | > 100 µM (inactive) | > 100 µM (inactive) | > 100 µM (inactive)
CSc1nc(Nc2ccccc2Cl)c2c(N)nn(C)c2n1 | > 100 µM (inactive) | 75.2 µM (inactive) | > 100 µM (inactive) | 13.1 µM (inactive) | 18.7 µM (inactive) | > 100 µM (inactive) | 9.51 µM (inactive) | > 100 µM (inactive) | 69.5 µM (inactive) | > 100 µM (inactive) | > 100 µM (inactive) | > 100 µM (inactive) | > 100 µM (inactive) | 16.9 µM (inactive) |  | > 100 µM (inactive) | > 100 µM (inactive) | > 100 µM (inactive) |  | > 100 µM (inactive)
